Laboratory results published in ChEMBL document CHEMBL1201862, “PubChem BioAssay data set” (2004).
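Cultured in 96-well plates, cells were exposed to test compound for 48 hours across five concentrations. GI50 marks 50% less growth.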 Activity calls are given as the source filed them. Cut-off read from the data, not from the text of the source: active = GI50 up to about 1.1 µM and inactive = higher.

How the values were obtained:
Assay in all cases: inhibition of tumour cell growth, NCI panel, 48 h
[1] = system: UACC-257
[2] = system: MDA-MB-435
[3] = system: OVCAR-3
[4] = system: LOX IMVI
[5] = system: 786-0
[6] = system: CAKI-1
[7] = system: SNB-75
[8] = system: M14
[9] = system: NCI-H23
[10] = system: COLO 205
[11] = system: ACHN
[12] = system: UACC-62
[13] = system: HCT-116
[14] = system: OVCAR-5
[15] = system: U-251
[16] = system: HOP-62
[17] = system: HL-60
[18] = system: NCI-H460
[19] = system: Malme-3M
[20] = system: SK-MEL-2

Measured: GI50

C=CC[C@@H]1C=C[C@@H](C(=O)OC)n2c(=O)n(-c3ccccc3)c(=O)n21
inactive: [1] > 100 µM | [2] > 100 µM | [3] > 100 µM | [4] > 100 µM | [5] > 100 µM | [6] > 100 µM | [7] > 100 µM | [8] > 100 µM | [9] > 100 µM | [10] > 100 µM | [11] > 100 µM | [12] > 100 µM | [13] > 100 µM | [14] > 100 µM | [15] > 100 µM | [16] > 100 µM

CCOC(=O)Cc1nc2nn(Cc3ccccc3)cc2c(=O)[nH]1
inactive: [1] > 100 µM | [2] > 100 µM | [3] > 100 µM | [4] > 100 µM | [5] > 100 µM | [6] > 100 µM | [7] > 100 µM | [9] > 100 µM | [17] > 100 µM | [18] > 100 µM | [10] > 100 µM | [11] > 100 µM | [12] > 100 µM | [13] > 100 µM | [14] > 100 µM | [15] > 100 µM | [16] > 100 µM | [19] > 100 µM

Cc1c2c(c(O)c3c(O)cccc13)C(=O)C1(O)C(=O)C(C(=O)NCNc3ccc(C(N)=O)cn3)=C(O)C(N(C)C)C1C2 (stereo not drawn)
inactive: [1] 3.66 µM | [2] 3.69 µM | [3] 2.49 µM | [4] 4.78 µM | [5] 5.52 µM | [6] 5.36 µM | [7] 2.84 µM | [8] 3.63 µM | [20] 6.95 µM | [9] 7.74 µM | [10] 6.28 µM | [12] 3.39 µM | [13] 4.06 µM | [14] 5.02 µM | [15] 2.6 µM | [16] 6 µM | [19] 3.28 µM

Cc1ccc(S(=O)(=O)Oc2nc3nc4ccccc4nc3nc2OS(=O)(=O)c2ccc(C)cc2)cc1
inactive: [1] > 100 µM | [2] > 100 µM | [3] > 100 µM | [5] > 100 µM | [6] > 100 µM | [7] > 100 µM | [8] > 100 µM | [20] > 100 µM | [9] > 100 µM | [17] > 10 µM | [18] > 100 µM | [10] > 100 µM | [11] > 100 µM | [12] > 100 µM | [13] > 100 µM | [14] > 100 µM | [15] > 100 µM | [19] > 100 µM

CN(C)c1ccc(C2=C([O-])c3cc(-[n+]4ccccc4)ccc3C2=O)cc1
inactive: [1] > 100 µM | [2] > 100 µM | [3] > 100 µM | [4] > 100 µM | [5] > 100 µM | [6] > 100 µM | [7] > 100 µM | [9] > 100 µM | [17] > 100 µM | [18] > 100 µM | [10] > 100 µM | [11] > 100 µM | [13] > 100 µM | [14] > 100 µM | [15] > 100 µM | [16] > 100 µM | [19] > 100 µM

c1ccc(C(CCN2CCCC2)c2ccccn2)cc1 (stereo not drawn)
inactive: [1] > 100 µM | [2] > 100 µM | [4] > 100 µM | [5] > 100 µM | [6] > 100 µM | [7] > 100 µM | [8] > 100 µM | [20] > 100 µM | [9] > 100 µM | [18] > 100 µM | [10] > 100 µM | [11] > 100 µM | [12] > 100 µM | [13] > 100 µM | [14] > 100 µM | [15] > 100 µM | [16] > 100 µM | [19] > 100 µM

CCn1c(=O)c2cn[nH]c2n(C)c1=O
inactive: [1] > 100 µM | [2] > 100 µM | [3] > 100 µM | [4] > 100 µM | [5] > 100 µM | [6] > 100 µM | [7] > 100 µM | [8] > 100 µM | [20] > 100 µM | [9] > 100 µM | [18] > 100 µM | [10] > 100 µM | [11] > 100 µM | [12] > 100 µM | [13] > 100 µM | [14] > 100 µM | [15] > 100 µM | [16] > 100 µM | [19] > 100 µM

CN1CCC23c4c5ccc(O)c4OC2c2[nH]c4ccccc4c2CC3(O)C1C5 (stereo not drawn)
inactive: [1] 18.5 µM | [2] 18.2 µM | [3] 42.6 µM | [4] 21.5 µM | [5] 18.7 µM | [6] 47.1 µM | [7] 36.7 µM | [8] 17.7 µM | [20] 20.6 µM | [9] > 100 µM | [18] 29.2 µM | [10] 17.1 µM | [11] 24.4 µM | [12] 23.4 µM | [13] 35.4 µM | [14] > 100 µM | [15] 22.5 µM | [16] > 100 µM | [19] 20.6 µM

Clc1ccc(CCNCCNC2(c3cc4ccccc4s3)CCCCC2)cc1Cl
inactive: [1] 1.81 µM | [2] 2.02 µM | [3] 1.45 µM | [4] 1.74 µM | [5] 1.95 µM | [6] 1.87 µM | [7] 1.96 µM | [8] 2.01 µM | [20] 1.76 µM | [9] 1.78 µM | [18] 1.73 µM | [10] 1.58 µM | [11] 1.73 µM | [12] 1.74 µM | [13] 1.73 µM | [14] 1.85 µM | [15] 1.63 µM | [16] 1.26 µM | [19] 1.88 µM

NC(=S)c1cccc(C2Nc3ccccc3O2)c1 (stereo not drawn)
inactive: [1] 22.1 µM | [2] 43 µM | [3] > 100 µM | [5] > 100 µM | [6] > 100 µM | [7] > 100 µM | [8] > 100 µM | [20] > 100 µM | [9] 49.9 µM | [17] 12.1 µM | [18] 49.2 µM | [10] > 100 µM | [11] 40.2 µM | [12] 19.5 µM | [13] > 100 µM | [14] > 100 µM | [15] > 100 µM | [16] > 100 µM | [19] > 100 µM

Clc1cccc(Cl)c1C1SCc2nc3cc4ccccc4cc3n21 (stereo not drawn)
inactive: [1] > 100 µM | [2] > 100 µM | [3] > 100 µM | [5] > 100 µM | [6] > 100 µM | [7] > 100 µM | [8] > 100 µM | [20] > 100 µM | [9] > 100 µM | [18] > 100 µM | [10] > 100 µM | [11] > 100 µM | [12] > 100 µM | [13] > 100 µM | [14] > 100 µM | [15] > 100 µM | [16] > 100 µM | [19] > 100 µM
